Reference: PubChem BioAssay (NCI)
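These data come from cells grown in 96-well plates and exposed to compound for 48 hours at five concentrations. Here, GI50 denotes the concentration required for 50% inhibition of growth. TGI is the concentration that stops growth completely.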

How the values were obtained:
Test in all cases: NCI-60 cell line screen, 48 h
[1] = tested on: SF-539 CNS
[2] = tested on: NCI-H522 lung
[3] = tested on: SNB-19 CNS
[4] = tested on: TK-10 renal
[5] = tested on: MCF7 breast
[6] = tested on: LOX IMVI melanoma
[7] = tested on: IGROV1 ovarian
[8] = tested on: SF-268 CNS
[9] = tested on: HT29 colon
[10] = tested on: A549 NSCLC
[11] = tested on: OVCAR-3 ovarian
[12] = tested on: OVCAR-4 ovarian
[13] = tested on: SK-MEL-28 melanoma
[14] = tested on: MDA-MB-435
[15] = tested on: ACHN renal
[16] = tested on: BT-549 breast
[17] = tested on: HOP-92 NSCLC
[18] = tested on: NCI-H460 lung
[19] = tested on: EKVX NSCLC
[20] = tested on: SK-MEL-2 melanoma
[21] = tested on: HCC-2998 colon
[22] = tested on: HCT-15 colon
[23] = tested on: SK-MEL-5 melanoma
[24] = tested on: SN12C renal
[25] = tested on: CAKI-1 renal
[26] = tested on: SK-OV-3 ovarian
[27] = tested on: RPMI-8226 leukemia
[28] = tested on: DU-145 prostate
[29] = tested on: M14 melanoma
[30] = tested on: RXF 393 renal
[31] = tested on: U251 CNS
[32] = tested on: SF-295 CNS
[33] = tested on: NCI-H226 lung
[34] = tested on: A498 renal
[35] = tested on: COLO 205 colon
[36] = tested on: OVCAR-5 ovarian
[37] = tested on: MDA-MB-231 breast
[38] = tested on: HOP-62 NSCLC
[39] = tested on: SNB-75 CNS
[40] = tested on: NCI-H23 lung
[41] = tested on: 786-0 renal
[42] = tested on: MALME-3M melanoma
[43] = tested on: UO-31 renal
[44] = tested on: UACC-62 melanoma
[45] = tested on: UACC-257 melanoma
[46] = tested on: NCI/ADR-RES ovarian

CN(C)c1ccc(Nc2cc(-c3cccc(OC(F)(F)F)c3)nc3ccc(N4CCCC4)cc23)cc1
GI50 [1]: 1.77 µM | TGI [1]: 3.36 µM | GI50 [2]: 2.03 µM | TGI [2]: 4.73 µM | GI50 [3]: 3.32 µM | TGI [3]: 13.7 µM | GI50 [4]: 1.84 µM | TGI [4]: 3.3 µM | GI50 [5]: 1.86 µM | TGI [5]: 4.61 µM | GI50 [6]: 1.73 µM | TGI [6]: 3.25 µM | GI50 [7]: 1.56 µM | TGI [7]: 3.06 µM | GI50 [8]: 1.85 µM | TGI [8]: 3.54 µM | GI50 [9]: 2.18 µM | TGI [9]: 4.59 µM | GI50 [10]: 1.7 µM | TGI [10]: 3.22 µM | GI50 [11]: 1.74 µM | TGI [11]: 3.14 µM | GI50 [12]: 1.98 µM | TGI [12]: 3.77 µM | GI50 [13]: 1.79 µM | TGI [13]: 3.3 µM | GI50 [14]: 1.82 µM | TGI [14]: 3.37 µM | GI50 [15]: 2.05 µM | TGI [15]: 4.36 µM | GI50 [16]: 1.96 µM | TGI [16]: 3.58 µM | GI50 [17]: 1.71 µM | TGI [17]: 3.71 µM | GI50 [18]: 1.92 µM | TGI [18]: 3.66 µM | GI50 [19]: 2.16 µM | TGI [19]: 6.05 µM | GI50 [20]: 12.4 µM | TGI [20]: 26.5 µM | GI50 [21]: 1.85 µM | TGI [21]: 3.36 µM | GI50 [22]: 1.75 µM | TGI [22]: 3.53 µM | GI50 [23]: 1.82 µM | TGI [23]: 3.3 µM | GI50 [24]: 1.78 µM | TGI [24]: 3.5 µM | GI50 [25]: 1.75 µM | TGI [25]: 3.57 µM | GI50 [26]: 13.1 µM | TGI [26]: 25.7 µM | GI50 [27]: 1.87 µM | TGI [27]: 4.48 µM | GI50 [28]: 2.82 µM | TGI [28]: 7.91 µM | GI50 [29]: 1.7 µM | TGI [29]: 3.32 µM | GI50 [30]: 1.66 µM | TGI [30]: 3.47 µM | GI50 [31]: 1.74 µM | TGI [31]: 3.16 µM | GI50 [32]: 1.83 µM | TGI [32]: 3.57 µM | GI50 [33]: 3.49 µM | TGI [33]: 15.4 µM | GI50 [34]: 2.47 µM | TGI [34]: 10.6 µM | GI50 [35]: 2.56 µM | TGI [35]: 9.02 µM | GI50 [36]: 1.79 µM | TGI [36]: 3.37 µM | GI50 [37]: 1.76 µM | TGI [37]: 3.23 µM | GI50 [38]: 1.67 µM | TGI [38]: 3.22 µM | GI50 [39]: 1.64 µM | TGI [39]: 3.12 µM | GI50 [40]: 2.06 µM | TGI [40]: 4.39 µM | GI50 [41]: 1.71 µM | TGI [41]: 3.24 µM | GI50 [42]: 1.66 µM | TGI [42]: 3.11 µM | GI50 [43]: 1.77 µM | TGI [43]: 3.17 µM | GI50 [44]: 1.8 µM | TGI [44]: 3.29 µM | GI50 [45]: 1.75 µM | TGI [45]: 3.35 µM | GI50 [46]: 1.92 µM | TGI [46]: 3.88 µM
